Assay [1] has as its target T1, Adenine DNA glycosylase (Homo sapiens) (UniProt Q9UIF7).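 Note: human MUTYH activity read as 594 nm fluorescence from cleavage and release of a quenched DNA duplex, coupled with APE1 for strand incision, lower signal meaning inhibition.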
T1 sequence (whole entry): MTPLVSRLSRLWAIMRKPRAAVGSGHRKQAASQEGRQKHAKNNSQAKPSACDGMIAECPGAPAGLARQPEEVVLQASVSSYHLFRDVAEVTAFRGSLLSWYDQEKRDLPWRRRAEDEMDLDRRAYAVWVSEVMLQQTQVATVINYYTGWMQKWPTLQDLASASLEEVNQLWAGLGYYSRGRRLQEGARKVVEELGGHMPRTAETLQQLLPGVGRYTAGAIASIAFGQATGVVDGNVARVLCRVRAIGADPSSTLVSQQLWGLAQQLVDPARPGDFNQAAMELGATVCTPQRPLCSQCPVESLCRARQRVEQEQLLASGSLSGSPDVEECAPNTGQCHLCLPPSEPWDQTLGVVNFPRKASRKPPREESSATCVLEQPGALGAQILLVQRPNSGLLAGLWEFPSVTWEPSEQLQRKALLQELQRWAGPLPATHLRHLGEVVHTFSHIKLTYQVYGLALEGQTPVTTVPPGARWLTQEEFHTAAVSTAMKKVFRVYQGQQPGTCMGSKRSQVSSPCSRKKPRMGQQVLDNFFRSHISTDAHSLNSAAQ
Conditions: Compound Concentration 10.0 uM, Hit No.
Description: Inhibition of MUTYH by quantifying inhibition of MUTYH-mediated cleavage and dissociation of quenched duplex DNA oligonucleotides, measured as fluorescence at 594 nm. To generate a functional strand incision and increase turn-over this assay is coupled to APE1.

Assay [2] concerns the target T2, Endonuclease III-like protein 1 (Homo sapiens) (UniProt P78549).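 Note: enzyme assay tracking NTHL1 cutting and release of a quenched double-stranded DNA oligo substrate, read as fluorescence at 594 nm.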
T2 sequence (whole entry): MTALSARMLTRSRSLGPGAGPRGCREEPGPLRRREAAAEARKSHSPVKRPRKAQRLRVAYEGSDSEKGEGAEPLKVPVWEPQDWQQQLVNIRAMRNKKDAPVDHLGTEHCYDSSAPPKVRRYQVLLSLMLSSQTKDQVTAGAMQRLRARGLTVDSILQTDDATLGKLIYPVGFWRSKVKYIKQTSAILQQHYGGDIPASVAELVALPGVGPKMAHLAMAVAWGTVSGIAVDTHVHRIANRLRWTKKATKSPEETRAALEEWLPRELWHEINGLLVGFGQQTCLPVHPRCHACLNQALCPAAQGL
Conditions: Compound Concentration 10.0 uM, Hit No.
Description: Inhibition of NTHL1 by quantifying inhibition of NTHL1-mediated cleavage and dissociation of quenched duplex DNA oligonucleotides, measured as fluorescence at 594 nm.

Assay [3] addresses T3, Endonuclease 8-like 2 (Homo sapiens) (UniProt Q969S2).
T3 sequence (whole entry): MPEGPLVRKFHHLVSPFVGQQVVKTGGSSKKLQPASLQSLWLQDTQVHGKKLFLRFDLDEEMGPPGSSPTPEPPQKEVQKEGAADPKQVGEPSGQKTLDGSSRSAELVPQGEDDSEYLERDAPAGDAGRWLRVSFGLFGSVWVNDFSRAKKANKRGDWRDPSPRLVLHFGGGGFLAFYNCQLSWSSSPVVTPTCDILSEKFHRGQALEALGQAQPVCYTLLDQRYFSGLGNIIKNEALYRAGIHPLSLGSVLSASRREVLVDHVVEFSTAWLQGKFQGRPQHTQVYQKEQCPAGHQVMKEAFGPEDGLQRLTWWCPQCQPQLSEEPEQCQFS
The conditions noted are these: Compound Concentration 10.0 uM.
Description: Inhibition of NEIL2 by quantifying inhibition of NEIL2-mediated cleavage and dissociation of quenched duplex DNA oligonucleotides, measured as fluorescence at 594 nm.

For assay [4], the target named is Uracil-DNA glycosylase (Homo sapiens) (UniProt P13051). The conditions noted are these: Compound Concentration 10.0 uM, Hit No.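 Note: UNG excision on a quenched double-stranded DNA oligo probe, with APE1 added for strand incision and turnover, read as fluorescence at 594 nm as strands separate.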
Description: Inhibition of UNG by quantifying inhibition of UNG-mediated cleavage and dissociation of quenched duplex DNA oligonucleotides, measured as fluorescence at 594 nm. To generate a functional strand incision and increase turn-over this assay is coupled to APE1.
Assay [5] addresses Endonuclease 8-like 1 (Homo sapiens) (UniProt Q96FI4). Conditions: Compound Concentration 10.0 uM, Hit No.
Description: Inhibition of NEIL1 by quantifying inhibition of NEIL1-mediated cleavage and dissociation of quenched duplex DNA oligonucleotides, measured as fluorescence at 594 nm.
Assay [6] has as its target Methyl-CpG-binding domain protein 4 (Homo sapiens) (UniProt O95243). Conditions: Compound Concentration 10.0 uM, Hit No.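 Note: MBD4 activity read as fluorescence at 594 nm from cleavage and release of a quenched duplex DNA oligonucleotide, with APE1 coupled to incise the strand and raise turnover.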
Description: Inhibition of MBD4 by quantifying inhibition of MBD4-mediated cleavage and dissociation of quenched duplex DNA oligonucleotides, measured as fluorescence at 594 nm. To generate a functional strand incision and increase turn-over this assay is coupled to APE1.
The target of assay [7] is G/T mismatch-specific thymine DNA glycosylase (Homo sapiens) (UniProt Q13569). Conditions: Compound Concentration 10.0 uM, Hit No.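 Note: human TDG cleavage of quenched duplex DNA oligonucleotides coupled to APE1, strand release read as fluorescence at 594 nm, inhibition of TDG activity.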
Description: Inhibition of TDG by quantifying inhibition of TDG-mediated cleavage and dissociation of quenched duplex DNA oligonucleotides, measured as fluorescence at 594 nm. To generate a functional strand incision and increase turn-over this assay is coupled to APE1.
Assay [8] concerns the target DNA-3-methyladenine glycosylase (Homo sapiens) (UniProt P29372). The conditions noted are these: Compound Concentration 10.0 uM, Hit No.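 Note: enzyme assay where MPG cuts a quenched duplex DNA oligonucleotide probe, paired with APE1 for strand incision and turnover, read as fluorescence at 594 nm.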
Description: Inhibition of MPG by quantifying inhibition of MPG-mediated cleavage and dissociation of quenched duplex DNA oligonucleotides, measured as fluorescence at 594 nm. To generate a functional strand incision and increase turn-over this assay is coupled to APE1.
Assay [9] deals with N-glycosylase/DNA lyase (Homo sapiens) (UniProt O15527). The conditions noted are these: Compound Concentration 10.0 uM, Hit No.
Sequence of N-glycosylase/DNA lyase (Homo sapiens) (O15527 whole entry): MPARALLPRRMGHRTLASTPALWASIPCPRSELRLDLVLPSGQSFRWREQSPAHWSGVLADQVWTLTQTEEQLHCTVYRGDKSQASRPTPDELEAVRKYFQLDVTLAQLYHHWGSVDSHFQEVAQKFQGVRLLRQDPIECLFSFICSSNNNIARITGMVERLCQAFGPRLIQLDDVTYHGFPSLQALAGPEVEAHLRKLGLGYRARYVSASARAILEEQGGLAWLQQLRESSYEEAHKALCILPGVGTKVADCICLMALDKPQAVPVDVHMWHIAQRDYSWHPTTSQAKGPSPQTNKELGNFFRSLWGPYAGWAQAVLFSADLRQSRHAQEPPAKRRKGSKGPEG
Description: Inhibition of OGG1 by quantifying inhibition of OGG1-mediated cleavage and dissociation of quenched duplex DNA oligonucleotides, measured as fluorescence at 594 nm. To generate a functional strand incision and increase turn-over this assay is coupled to APE1.

Sequence of DNA-3-methyladenine glycosylase (Homo sapiens) (P29372 whole entry): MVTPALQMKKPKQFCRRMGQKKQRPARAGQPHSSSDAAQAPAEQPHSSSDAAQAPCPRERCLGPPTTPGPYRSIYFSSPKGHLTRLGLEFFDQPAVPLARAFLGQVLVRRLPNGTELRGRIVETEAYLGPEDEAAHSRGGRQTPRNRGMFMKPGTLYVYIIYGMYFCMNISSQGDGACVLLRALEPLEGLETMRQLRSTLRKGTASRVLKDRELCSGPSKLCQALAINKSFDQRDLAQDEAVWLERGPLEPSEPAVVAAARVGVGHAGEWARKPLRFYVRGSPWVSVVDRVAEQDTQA
Sequence of Endonuclease 8-like 1 (Homo sapiens) (Q96FI4 whole entry, the tested form may be a part): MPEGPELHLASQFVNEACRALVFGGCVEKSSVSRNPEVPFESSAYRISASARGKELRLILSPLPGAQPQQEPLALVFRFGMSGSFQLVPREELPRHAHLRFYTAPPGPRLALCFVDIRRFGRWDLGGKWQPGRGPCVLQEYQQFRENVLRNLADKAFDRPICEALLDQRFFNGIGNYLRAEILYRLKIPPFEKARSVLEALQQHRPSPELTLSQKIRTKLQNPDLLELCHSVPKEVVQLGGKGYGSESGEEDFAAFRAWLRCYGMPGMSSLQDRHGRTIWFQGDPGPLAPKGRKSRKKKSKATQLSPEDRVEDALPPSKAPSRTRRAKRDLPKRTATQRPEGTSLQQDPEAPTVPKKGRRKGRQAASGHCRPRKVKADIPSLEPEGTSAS
Sequence of Methyl-CpG-binding domain protein 4 (Homo sapiens) (O95243 whole entry, the tested form may be a part): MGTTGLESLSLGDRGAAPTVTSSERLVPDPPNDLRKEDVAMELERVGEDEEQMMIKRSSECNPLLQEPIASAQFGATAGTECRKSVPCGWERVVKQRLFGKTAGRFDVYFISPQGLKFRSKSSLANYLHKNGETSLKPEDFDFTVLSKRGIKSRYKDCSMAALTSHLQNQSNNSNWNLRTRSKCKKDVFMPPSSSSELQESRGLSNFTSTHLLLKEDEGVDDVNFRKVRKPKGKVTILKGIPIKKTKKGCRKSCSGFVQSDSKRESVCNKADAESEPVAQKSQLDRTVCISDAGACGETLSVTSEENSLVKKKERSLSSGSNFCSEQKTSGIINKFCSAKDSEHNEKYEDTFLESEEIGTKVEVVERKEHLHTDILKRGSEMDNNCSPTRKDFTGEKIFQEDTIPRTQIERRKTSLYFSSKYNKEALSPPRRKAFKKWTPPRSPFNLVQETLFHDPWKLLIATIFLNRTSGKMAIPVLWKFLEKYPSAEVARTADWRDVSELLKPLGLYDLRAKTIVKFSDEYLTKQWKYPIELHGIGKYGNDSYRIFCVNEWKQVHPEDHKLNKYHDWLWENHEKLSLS
Sequence of G/T mismatch-specific thymine DNA glycosylase (Homo sapiens) (Q13569 whole entry): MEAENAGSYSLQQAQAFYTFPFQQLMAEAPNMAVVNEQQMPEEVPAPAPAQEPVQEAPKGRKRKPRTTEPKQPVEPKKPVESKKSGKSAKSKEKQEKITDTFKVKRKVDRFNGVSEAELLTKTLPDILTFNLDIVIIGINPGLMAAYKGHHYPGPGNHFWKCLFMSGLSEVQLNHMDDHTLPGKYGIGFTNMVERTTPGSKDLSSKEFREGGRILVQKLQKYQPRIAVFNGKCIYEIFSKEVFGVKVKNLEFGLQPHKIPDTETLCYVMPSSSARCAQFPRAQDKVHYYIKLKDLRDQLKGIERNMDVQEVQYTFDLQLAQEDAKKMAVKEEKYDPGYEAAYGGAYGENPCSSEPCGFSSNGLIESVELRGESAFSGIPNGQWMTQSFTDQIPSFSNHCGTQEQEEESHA
Sequence of Uracil-DNA glycosylase (Homo sapiens) (P13051 whole entry): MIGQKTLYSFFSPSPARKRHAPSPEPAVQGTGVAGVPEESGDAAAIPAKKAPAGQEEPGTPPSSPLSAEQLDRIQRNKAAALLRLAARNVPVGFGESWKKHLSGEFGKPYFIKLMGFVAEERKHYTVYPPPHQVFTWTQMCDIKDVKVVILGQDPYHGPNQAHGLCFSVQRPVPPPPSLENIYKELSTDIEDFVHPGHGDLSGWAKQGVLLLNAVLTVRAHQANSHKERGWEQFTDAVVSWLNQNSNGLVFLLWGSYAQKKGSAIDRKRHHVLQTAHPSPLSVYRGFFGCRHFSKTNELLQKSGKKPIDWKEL

The term inhibition denotes the relative decrease from the control value, in per cent. Regarding `Cc1ccccc1C#Cc1ccc(CCC(=O)O)cc1`, the inhibition is 12.8% in assay [1]; 6.35% in [2]; 1.69% in assay [3] (Hit No); -2.61% in [4]; -4.44% in [5]; 11.2% in assay [6]. For the same compound, the inhibition worked out at 14.4% in assay [7], 10.7% in assay [8] and 8.7% in assay [9].
Regarding `FC(F)(F)c1ccc(N2CCNCC2)nc1Cl`, the inhibition is -0.34% in [1]; 11.3% in assay [2]; -1.62% in assay [3] (Hit No); -2.44% in [4]; -3.1% in assay [5]; 12.7% in assay [6]. Besides, the inhibition in assay [7] was 27.6%; in [8], 8.14%; in assay [9] it was -4.95%.
Turning to `COc1ccc(CC(=O)NC(N/C(=N/C#N)Nc2cccc3ncccc23)C(C)(C)C)cc1OC` (stereo not given), the inhibition was 7.91% in assay [1]; 16.2% in [2]; 1.94% in assay [3] (Hit No); -5.2% in assay [4]; 3.12% in assay [5]; -7.77% in assay [6]. The inhibition in assay [7] was 7.3%; in [8] it was 7.8%; in assay [9], -8%.
Take `O=C(Nc1ccc(Cl)cc1)N[C@@H](Cc1ccccc1)C(=O)N1CCCCC1`: the inhibition in assay [1] is 13.5%; in [2] it was 17.9%; in assay [3] (Hit No), -3.15%; in assay [4], -3.64%; in assay [5], 0.898%; in [6] it was 27.2%. For the same compound, the inhibition is 22.9% in assay [7], 30.7% in [8] and -1.34% in assay [9].
Consider `O=C(O)CCC/C=C\C[C@H]1C(=O)C[C@@H](O)[C@@H]1/C=C/[C@@H](O)CCc1ccccc1`, for which the inhibition in [1] is 15.1%; in assay [2], 14.6%; in assay [4] it was -6.21%; in assay [5] it was -9.47%; in assay [6], 13.3%; in assay [7], 20.6%. In addition, the inhibition in assay [8] was -3.36%; in [9], -5.63%.
Take `Cn1c(=O)n(CCCO)c(=O)c2c1nc(Oc1cccc(Cl)c1)n2Cc1ccc(Cl)cc1`: the inhibition in [1] came out at 15.9%; in [2], 12.1%; in [4], 0.363%; in [5], 2.53%; in assay [6], 23.2%; in assay [7], 8.76%. Besides, the results for the inhibition in [8] and in [9] were 11.6% and -1.16%, respectively.
Take `C[C@@H](Cn1c(=O)[nH]/c(=N\c2ccc(Oc3ccccn3)cc2)n(Cc2ccc(Cl)cc2)c1=O)C(=O)O`: the inhibition in assay [1] is 14.4%; in [2], 24.5%; in assay [3] (Hit No), 5.25%; in [4], -3.28%; in [5] it was 5.49%; in [6] it was 25.3%. Moreover, the values for the inhibition in assay [7], in [8] and in assay [9] were 23.6%, 14.7% and -4.95%, respectively.
Turning to `Cc1nccn1CC1CCc2c(c3ccccc3n2C)C1=O` (stereo not given), the inhibition in assay [1] is 19%; in assay [2], 22%; in [4], -9.34%; in assay [5], 6.23%; in [6], 17%; in assay [7], 0.598%. In addition, the results for the inhibition in assay [8] and in assay [9] were 13.8% and -7.85%, respectively.
As to `CCCN(CCC)[C@@H]1CCc2ccc3[nH]c(C#N)cc3c2C1`, the inhibition is 46.8% in assay [1]; -5.21% in assay [2]; 9.08% in [3] (Hit No); -7.96% in [4]; -4.73% in assay [5]; 35.8% in assay [6]. Also, the results for the inhibition in [7], in assay [8] and in [9] were 30%, 27.5% and 5.74%, respectively.
As for `COc1cc2nc(N(C)CCCNC(=O)C3CCCO3)nc(N)c2cc1OC` (stereo not given), the inhibition is 34.2% in assay [1]; 27.8% in assay [2]; 32.3% in assay [3] (Hit Yes); -4.94% in assay [4]; -3.84% in assay [5]; 25.4% in [6]. Also, the inhibition in assay [7] was 16.1%; in [8], 21.4%; in [9], -9.24%.
With `CCCCC(=O)N(Cc1ccc(-c2ccccc2C(=O)O)cc1)c1ccccc1`, the inhibition in [1] is 18%; in assay [2], 7.17%; in [3] (Hit No), -3.15%; in assay [4], -5.18%; in assay [5] it was 1.79%; in [6], 33.4%. In addition, the inhibition in [7] was 23.9%; in [8], 11.5%; in assay [9], -7.96%.
Regarding `Cc1cc(NC(=O)NCCN2CCC(O)(Cc3ccccc3)CC2)c2ccccc2n1`, the inhibition is 17.8% in [1]; -6.04% in assay [2]; -1.88% in assay [3] (Hit No); -0.672% in assay [4]; 28.9% in assay [6]; 11.4% in assay [7]. Further, the inhibition was -4.68% in [8] and -6.59% in assay [9].
On to `O=c1ccc2c(OCCCCOc3ccccc3)c3ccoc3cc2o1`, for which the inhibition was 3.71% in assay [1]; 3.87% in assay [2]; -5.58% in assay [4]; -4.29% in [5]; 11.1% in [6]; -7.24% in assay [7]. Besides, the inhibition in [8] is 29.9%; in assay [9], 3.75%.
As to `COc1cc(C(C)C)c(Oc2cnc(NC(CO)CO)nc2N)cc1I`, the inhibition in assay [1] is 2%; in assay [2] it was 6.35%; in [4], -4.17%; in assay [5], -4.73%; in assay [6], -6.99%; in assay [7], -1.74%. For the same compound, the inhibition in assay [8] is -3.99%; in [9], -8.24%.
As for `CN(C)CCn1cc(S(=O)(=O)c2cccc(F)c2)c2cccnc21`, the inhibition in assay [1] was 1.09%; in assay [2], 10.5%; in [4], -6.74%; in assay [5] it was -6.66%; in assay [6], 7%; in assay [7], 2.84%. In addition, the results for the inhibition in assay [8] and in assay [9] were 4.26% and -9.57%, respectively.
As for `CN1CCN2c3ccccc3Cc3ccccc3C2C1` (stereo not given), the inhibition in [1] is 1.87%; in assay [2], -6.86%; in assay [4], -6.73%; in assay [5], -1.32%; in [6], 11.7%; in [7] it was 1.8%. In addition, the inhibition is 9.97% in [8] and -6.17% in [9].
In the case of `CCCN[C@H]1CCc2nc(N)sc2C1`, the inhibition in [1] is 13.4%; in assay [2] it was 22%; in [4] it was -5.95%; in [5], -3.55%; in assay [6], 9.06%; in assay [7], 19.3%. Also, the figures for the inhibition in assay [8] and in assay [9] were -0.406% and -6.43%, respectively.
As to `CS(=O)(=O)Nc1c(O)ccc2c1CCCC2C1=NCCN1` (stereo not given), the inhibition in assay [1] is 23.1%; in assay [2], 13.8%; in [4], -0.201%; in assay [5], 2.08%; in [6], 17.6%; in assay [7], -0.654%. Moreover, the inhibition in assay [8] is 2.87%; in assay [9], -9.24%.
On to `Nc1nc(Nc2ccccc2)nc2c1ncn2[C@@H]1O[C@H](CO)[C@@H](O)[C@H]1O`, for which the inhibition is -1.27% in assay [1]; 1.39% in assay [2]; -5.2% in [4]; -6.51% in [5]; 11.6% in assay [6]; 10.5% in [7]. For the same compound, the inhibition in assay [8] was -7.65%; in [9], 6.96%.

Source of the values: ChEMBL document CHEMBL5665443, “Enzyme Inhibitor Single Concentration assay results for EUbOPEN Chemogenomics Library” (2024).
